Data reported in patent US9718806B2, “Quinazoline inhibitors of activating mutant forms of epidermal growth factor receptor” (AstraZeneca AB, priority 2013, dated 2017).
Counter-ions that a name gives are not always drawn.

Key:
[1] = Assay 2: brain blood barrier penetration assay (short oral absorption model plus in vitro blood and brain binding); type: in vivo; conditions: rat, male Han Wistar rats, oral 2 mg/kg, Kp,uu=AUC (brain)/AUC (blood)×(fu,brain/fu.blood)
Description: Assay 2: Brain Blood Barrier Penetration Assay
It is believed that Kp,uu, the relationship between concentrations of unbound drug in brain and in blood, is the key to prediction of CNS action and should be the main parameter measured and optimized for in drug discovery (Di L et al., Journal of Medicinal Chemistry [2013], 56: 2-12).
In vitro blood and brain binding assay was carried out on a HT-Dialysis plate (Gales Ferry, Conn.) with semi-permeable membrane. Diluted blood (1:1 with DPBS pH7.4) and brain homogenate (1:3 with DPBS pH7.4) were spiked with 5 μM test compound (in triplicate) and dialyzed against equal volume of 150 μL 100 mM PBS buffer (pH7.4) at 37° C. for 4 hours in a slowly rotated plate. At the end of incubation, a 50 μL aliquot from the receiver side and a 5 μL from the donor chamber were taken. The 5 μL sample was further diluted with 45 μL of blank blood or brain homogenate. Paired samples were matrix-matched with either buffer or blank blood/brain homogenate and mixed for 2 min, and then precipitated with 150 μL cold acetonitrile with 100 ng/mL tolbutamide as internal standard. After centrifuging at 4000 rpm for 20 min, supernatant was diluted with 0.1% formic acid aqueous solution and analyzed for LC/MS/MS (API 4000, Applied Biosystems, Foster City). […]. D is dilution factor.
A Short oral absorption (SOA) model is an in-vivo screening model to identify brain penetration of a compound. […]
Standards were prepared by spiking blank blood, brain homogenate and artificial CSF covering 0.2 to 500 ng/mL. […] After 2 min vortex and 5 min centrifugation at 14,000 rpm, supernatant was analyzed by LC/MS/MS (API 4000, Applied Biosystems, Foster City). […] For brain and CSF samples, one standard curve was analyzed along with test samples.
Total brain levels, expressed as brain/blood ratio (Kp) were measured by AUCbrain/AUCblood in rodents after oral administration. Free fraction of test compound in biological matrix was determined by in vitro blood and brain binding assay. Kp,uu was calculated by the following equation: Kp,uu=AUC (brain)/AUC (blood)×(fu,brain/fu.blood).

endogenous p-EGFR = experiment: Assay 1: cellular phosphorylation assay, overall statement; type: cell-based, human; conditions: Assay 1, statement on the table
Text: Assay 1: Cellular Phosphorylation Assay
The human lung cell line NCI-H3255 (L858R) was obtained from the American Type Culture Collection. The NCI-H3255 cells were maintained in BEBM media (Lonza; CC-3171), containing 10% fetal bovine serum (FBS) (Gibco; 10099-141), supplemented with BEGM kit (Lonza; CC-4175). The human lung cell line PC-9 (Exon 19 deletion EGFR) was obtained from the American Type Culture Collection. PC-9 cells were maintained in RPMI 1640 (Gibco; 22400-089), containing 10% fetal bovine serum. The human lung cell line NCI-H838 (EGFR wild type) was obtained from the American Type Culture Collection. NCI-H838 cells were maintained in RPMI 1640 (Gibco; 22400-089), containing 10% fetal bovine serum.
All cells were grown in a humidified incubator at 37° C. with 5% CO2. Assays to measure cellular phosphorylation of endogenous p-EGFR in cell lysates were carried out according to the protocol described in the PathScan® Phospho-EGF Receptor (Tyr1068) Sandwich ELISA Kit (Cell Signalling kit catalogue number #7240).
100 μL of cells were seeded (32000 cells/well) in RPMI 1640+1% fetal bovine serum in Corning Costar, 96 well cell culture plates and incubated at 37° C. with 5% CO2 overnight. Cells were acoustically dosed using a […], with compounds serially diluted in 100% DMSO. Cell plates were incubated for a further 4 h after the compounds were added, (for NCI-H838: rhEGF (R&D catalogue number#236-EG) was added to cell plate with final concentration 100 ng/ml rhEGF to stimulate 5 minutes), then following aspiration of medium, 110 μL IP lysis buffer (IP lysis buffer: add 1:100 phosphatase inhibitor cocktail 2&3 (Sigma catalogue number P5726&P0044), 1:100 protease inhibitor cocktail (Sigma catalogue number P8340) to Pierce IP lysis buffer (Thermo catalogue number #87788)) was added to each well. The plates were put at 4° C. with rotation 300 rpm for 0.5-1 hour. […] 100 μl stop solution (Cell Signalling kit catalogue number#7240) was added to the plates and absorbance read at 450 nm within 30 minutes on SpectraMax M5e plate reader. […]

| SMILES | Kp uu ([1]; in vivo) | potency compared with gefitinib and erlotinib (endogenous p-EGFR) | Kp uu ([1]; brain / blood (unbound)) |
| --- | --- | --- | --- |
| COc1cc2ncnc(Nc3cccc(Cl)c3F)c2cc1OC(=O)N1CCN(C)C[C@H]1C [Example 1, 4-[(3-Chloro-2-fluorophenyl)amino]-7-methoxyquinazolin-6-yl (2R)-2,4-dimethylpiperazine-1-carboxylate] | 1.3 | comparable potency to gefitinib and erlotinib |  |
| COc1cc2ncnc(Nc3cccc(Cl)c3F)c2cc1OC(=O)N1CCN(C)C[C@H]1C [Example 2, 4-[(3-Chloro-2-fluorophenyl)amino]-7-methoxyquinazolin-6-yl (2R)-2,4-dimethylpiperazine-1-carboxylate hydrochloride] |  | comparable potency to gefitinib and erlotinib |  |
| COc1cc2ncnc(Nc3cccc(Cl)c3F)c2cc1OC(=O)N1CCN(C)C[C@@H]1C [Example 3, 4-[(3-Chloro-2-fluorophenyl)amino]-7-methoxyquinazolin-6-yl (2S)-2,4-dimethylpiperazine-1-carboxylate] |  | comparable potency to gefitinib and erlotinib | 1.6 |
| CNC(=O)CN1CCC(Oc2cc3c(Nc4cccc(Cl)c4F)ncnc3cc2OC)CC1 [sapitinib, reference compound] |  |  | 0.12 |
